US7105521B2, “Eugenosedin-A based pharmacoligical agents” (Syn-Tech Chem & Pharm Co., Ltd., priority 2003, dated 2006)

Key:
α1 receptors = assay: Receptor binding, [3H]prazosin, rat cortex; set-up: species or system Wistar rat
Experimental: Drugs and chemicals. […] Eugenosedin-A synthesized in this laboratory was solvated in 50% absolute alcohol, 10% propylene glycol and further diluted with distilled water. All of the [^3H] ligand was purchased from New England Nuclear Corp. (Boston, Mass., U.S.A.).
Receptor binding studies. […] The homogenate was pressure filtered through muslin. Filtrate was centrifuged at 1000 g for 10 min. Supernatant was centrifuged at 10,000 g for 12 min at 4° C. The second supernatant was centrifuged at 30,000 g for 15 min at 4° C. The final pellet was re-suspended in assay buffer (75 mM Tris HCl, 25 mM MgCl2, pH 7.4). Protein content was determined by Bradford's method. Radioligand agents and membranes (200–300 μg) were incubated for 60 min at 25° C. with or without the addition of nonspecific binding agents, in a 75 mM Tris HCl buffer with 25 mM MgCl2, to make a final volume of 500 μl. In competitive-binding experiments, the competing agent was added directly to the incubation mixture. Incubation was terminated by addition of 1 ml of ice-cold assay buffer followed by immediate filtration through Whatman GF/C glass fiber filters supported on a 12-port filter manifold (Millipore). The filters were immediately washed 3 times with 5 ml of ice-cold assay buffer and dried in an oven at 60° C. for 2 hours before adding 5 ml of Triton-toluene-based scintillation fluid. Membrane-bound radioligand trapped in the filters was counted in a Beckman LS6500 scintillation system (Fullerton, Calif., U.S.A) with an efficiency of 45%. In each experiment, nonspecifically bound radioligand agents were determined by incubating membrane protein. Specific binding for each sample was obtained by deducting this value from the total binding of radioligand agents.

IFN-γ = assay: Plasma cytokine immunoreactivity after LPS: IFN-γ; format: in vivo, Wistar rats; settings: 3 hours after LPS 10 mg kg^−1 i.v.; pretreatment 1 mg kg^−1 i.v.
Experimental: (§1) Plasma cytokine immunoreactivity and blood glucose. Blood was collected from venous cannula, injected into ice-cold heparinized Eppendorf tubes and centrifuged at 1500 rpm for 10 min at 4° C. Plasma supernatant was stored at −70° C. until analyzed. Solid phase enzyme immunoassay that specifically detects murine IL-1β, IL-6, IFN-γ and TNF-α was used with a detection limit of >10 pg/ml (Endogen, U.S.A). Pretreatment with eugenosedin-A and other agents was performed 15 minutes before intravenous injection of LPS. Blood was collected from venous cannula. Blood glucose was measured with a glucose test strip (Glucotide, Bayer, U.S.A) at 1, 3 and 5 hours.

β1-adrenoceptor = target: T1, β1-adrenoceptor (Rattus norvegicus, UniProt P18090); assay: Isoprenaline-induced positive inotropic effect in electrically stimulated rat left atria; format: cell-based; settings: 10^−8, 10^−7, 10^−6 M, isolated rat left atria
T1 construct: isoprenaline-induced concentration-response curves in isolated rat left atria; from tissue; host or cells: isolated rat left atria
Experimental: Isolation of rat left atria. Rats of either sex weighing 350–500 g were sacrificed after mild anesthesia with ether, and their hearts were quickly excised. Left atria were dissected from the hearts and mounted in a 10 ml organ bath with one end fixed and the other end connected to a force displacement transducer (Grass, Model FT03). The experiments were carried out at 37° C. in a Krebs solution of the following composition (mM): NaCl 113, KCl 4.8, CaCl2 2.2, KH2PO4 1.2, MgCl2 1.2, NaHCO3 25, Dextrose 11.0; bubbled with a 95% O2+5% CO2 mixture. Atria were pre-stretched to a baseline tension of 0.5 g and equilibrated for 60 min in an aerated Krebs solution before starting experimental protocols. Atria were driven at 2-s intervals via two platinum electrodes on each side. An incubation time of 30 min was allowed for the test compound. Data were calculated as a percentage of the maximum contraction (Wu et al., 2001).

IL-1β = assay: Plasma cytokine immunoreactivity after LPS: IL-1β; format: in vivo, Wistar rats; settings: 3 hours after LPS 10 mg kg^−1 i.v.; pretreatment (eugenosedin-A 1 mg kg^−1 i.v.)
Experimental: as §1

IL-6 = assay: Plasma cytokine immunoreactivity after LPS: IL-6; format: in vivo, Wistar rats; settings: 3 hours after LPS 10 mg kg^−1 i.v.; pretreatment 1 mg kg^−1 i.v.
Experimental: as §1

[1] = Intravenous injection: BP and HR in pentobarbital-anesthetized rats; format: in vivo, Wistar rats
Experimental: (§2) Intravenous injection. The experiments were carried out as previously described (Wu B N. et al., Biochem. Pharmacol., 48:101–109, 1994). In brief, Wistar rats weighing 250–300 grams were anesthetized with pentobarbital sodium (50 mg kg^−1, i.p.). Following tracheal cannulation, systemic arterial BP and HR were recorded from the femoral artery by a pressure transducer (model P10EZ; Spectramed, Oxnard, Calif., U.S.A.) connected to a recorder (GOULD, Valley View, Ohio, Model P50). Body temperature was maintained at 37° C. by an electric heating pad. A femoral vein was cannulated for intravenous injection of drugs and LPS (10 mg kg^−1).

[2] = Intra-cisternal injections: mean arterial BP and HR; format: in vivo, rats
Experimental: Intra-cisternal injections. […] Briefly, rats weighing 250–300 g were anaesthetized with pentobarbital sodium (50 mg kg^−1, i.p.) and mounted in a David-Kopf stereotaxic instrument (Yeh J L. et al., Brain. Res. Bull., 30:641–648, 1993). The calvarium was exposed and a 1 mm diameter trephine hole was drilled 1.8 mm lateral to the coronary and 1.5 mm posterior to the sagittal sutures. A cannula (0.7 mm O.D.) connected to a Hamilton syringe (RN-705, 5051) by PE-50 was advanced 4.7 mm into the brain using the electrode carrier.

5-HT2A receptor = 5-HT2A receptor (Rattus norvegicus, UniProt P14842); assay: 5-HT-induced contraction of isolated rat thoracic aorta; format: cell-based; set-up: from tissue; host or cells: rat thoracic aorta rings
Excerpt: Isolation of rat thoracic aorta. Rat thoracic aorta was removed, cleaned of adhering fat and connective tissue and cut into 3–4 mm wide transverse rings.

Survival rate after LPS = format: in vivo, ddk mice; settings: pretreatment 0.5, 1, 5 mg kg^−1 i.p., LPS 60 mg kg^−1
Blood glucose after LPS = format: in vivo, Wistar rats
Experimental: as §1

LPS-induced hypotension = format: in vivo, Wistar rats; settings: LPS 10 mg kg^−1 i.v.
Experimental: as §2

[3] = i.v., pentobarbital-anesthetized rats

Sequence of 5-HT2A receptor (P14842 whole entry): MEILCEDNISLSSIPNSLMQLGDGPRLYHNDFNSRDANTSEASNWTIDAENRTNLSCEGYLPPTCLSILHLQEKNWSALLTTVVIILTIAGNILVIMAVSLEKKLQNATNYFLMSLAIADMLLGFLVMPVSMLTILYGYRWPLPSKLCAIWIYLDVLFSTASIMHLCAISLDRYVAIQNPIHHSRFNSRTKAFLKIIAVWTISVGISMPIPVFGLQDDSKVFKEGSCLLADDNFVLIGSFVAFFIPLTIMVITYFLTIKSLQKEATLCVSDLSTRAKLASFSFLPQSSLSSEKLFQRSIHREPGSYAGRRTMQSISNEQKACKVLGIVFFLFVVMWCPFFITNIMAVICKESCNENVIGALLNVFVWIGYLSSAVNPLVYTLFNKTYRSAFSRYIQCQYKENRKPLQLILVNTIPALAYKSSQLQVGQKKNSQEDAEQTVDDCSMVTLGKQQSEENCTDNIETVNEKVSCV
T1 sequence (P18090 whole entry): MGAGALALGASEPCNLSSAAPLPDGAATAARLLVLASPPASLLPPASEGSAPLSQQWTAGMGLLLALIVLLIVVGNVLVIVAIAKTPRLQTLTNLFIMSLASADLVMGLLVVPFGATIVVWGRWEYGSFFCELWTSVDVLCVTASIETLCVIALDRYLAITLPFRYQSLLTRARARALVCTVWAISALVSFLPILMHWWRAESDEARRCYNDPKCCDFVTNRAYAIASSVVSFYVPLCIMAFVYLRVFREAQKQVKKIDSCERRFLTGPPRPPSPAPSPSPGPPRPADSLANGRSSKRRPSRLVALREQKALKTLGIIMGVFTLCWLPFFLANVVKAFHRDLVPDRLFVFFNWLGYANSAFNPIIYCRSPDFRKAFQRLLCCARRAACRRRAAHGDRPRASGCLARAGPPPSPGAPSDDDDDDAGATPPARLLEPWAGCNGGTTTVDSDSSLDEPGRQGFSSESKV

With `CC=Cc1ccc(OCC(O)CN2CCN(c3ccccc3Cl)CC2)c(OC)c1` (centres unmarked) [eugenosedin-A] the Ki (α1 receptors) was 142 nM, the “order of α1 receptor binding potency” value (α1 receptors) was “prazosin >ketanserin >eugenosedin-A >methylsergide, propranolol and 5-HT” and the “LPS-induced increase in IFN-γ” value (IFN-γ) was “significantly inhibited”. For the same molecule, the “cumulative isoprenaline-induced positive inotropic effects” value (β1-adrenoceptor) was “concentration-dependently inhibited”, the “LPS-induced increase in IL-1β” value (IL-1β) was “significantly inhibited” and the “LPS-induced increase in IL-6” value (IL-6) was “significantly inhibited”. For the same molecule, the “effect on arterial blood pressure after acute intravenous injection” value ([1]; 0.1, 0.5, 1.0 mg kg^−1 i.v., pentobarbital-anesthetized Wistar rats) was “mild arterial hypotension”, the “depressor effect compared with trazodone and ketanserin” value ([1]; i.v., pentobarbital-anesthetized Wistar rats) was “less than that of trazodone and ketanserin” and the “mean BP and HR after intravenous administration” value [1, 3] was “dose-dependent decrease in mean BP and HR”. The “phenylephrine- and isoprenaline-induced changes in BP and HR” value [1, 3] was “inhibited phenylephrine- and isoprenaline-induced changes in BP and HR”, the “increase of HR” value ([2]; 0.3 μmol) was “up to 60 bpm” and the pressor response ([2]; 0.3 μmol) was “up to 15 mmHg”. For the same molecule, the “effect on mean arterial BP and HR” value ([2]; eugenosedin-A and trazodone 0.3, 0.03 μmol, yohimbine 0.03 μmol) was “increased mean arterial BP and HR”, the Kb (5-HT2A receptor) was 2.09 nM and the 5-HT-induced contractile activities (5-HT2A receptor; 10^−8, 10^−7, 10^−6 M, isolated rat thoracic aorta) was “concentration-dependently inhibited”. The “survival rate after LPS” value (Survival rate after LPS; at 12 hrs) was “significantly increased”, the “time of LPS-induced death” value (Survival rate after LPS) was 36 h and the “initial hyperglycemic response to LPS” value (Blood glucose after LPS; blood glucose at 1 and 3 hours after LPS) was “inhibited the initial hyperglycemic response to LPS”. The “hypoglycemic response to LPS” value (Blood glucose after LPS; blood glucose at 5 hours after LPS) was “did not reverse the hypoglycemic response”, the “development of hypotension after LPS injection and normalization of BP” value (LPS-induced hypotension; i.v. pretreatment) was “normalized BP within 5 hours” and the “first immediate hypotensive phase after LPS” value (LPS-induced hypotension; pretreatment 0.5 mg kg^−1 i.v.) was “not affected”. For the same molecule, the “first immediate hypotensive phase after LPS” value (LPS-induced hypotension; pretreatment 1 mg kg^−1 i.v.) was “attenuated it” and the “second prolonged hypotensive phase after LPS” value (LPS-induced hypotension; pretreatment 0.5 and 1 mg kg^−1 i.v.) was “significantly reduced”.
